In patent US6737383B1, “Herbicidal oxadiazolidines” (priority 1999, dated 2004):

Assays:
bedstraw = assay: Test B pre/postemergence bedstraw; type: in vivo, Galium aparine
In short: (§1)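 Response is a visual 0-to-10 score relative to untreated plants, where 0 means no effect and 10 means complete control, taken twelve to sixteen days after application. Treatments went onto soil at planting and onto foliage of 1- to 4-leaf plants, using a surfactant-containing non-phytotoxic solvent.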

blackgrass = assay: Test B pre/postemergence blackgrass; type: in vivo, Alopecurus myosuroides
In short: as §1

surinam grass = assay: Test B pre/postemergence surinam grass; type: in vivo, Brachiaria decumbens
In short: as §1

cocklebur = assay: Test B pre/postemergence cocklebur; type: in vivo, Xanthium strumarium
In short: as §1

corn = assay: Test B pre/postemergence corn; type: in vivo, Zea mays
In short: as §1

crabgrass = assay: Test B pre/postemergence crabgrass; type: in vivo, Digitaria sanguinalis
In short: as §1

giant foxtail = assay: Test B pre/postemergence giant foxtail; type: in vivo, Setaria faberii
In short: as §1

morningglory = assay: Test B pre/postemergence morningglory; type: in vivo, Ipomoea hederacea
In short: as §1

pigweed = assay: Test B pre/postemergence pigweed; type: in vivo, Amaranthus retroflexus
In short: as §1

rape = assay: Test B pre/postemergence rape; type: in vivo, Brassica napus
In short: as §1

soybean = assay: Test B pre/postemergence soybean; type: in vivo, Glycine max
In short: as §1

velvetleaf = assay: Test B pre/postemergence velvetleaf; type: in vivo, Abutilon theophrasti
In short: as §1

wheat = assay: Test B pre/postemergence wheat; type: in vivo, Triticum aestivum
In short: as §1

wild oat = assay: Test B pre/postemergence wild oat; type: in vivo, Avena fatua
In short: as §1

purple nutsedge = assay: Test B pre/postemergence purple nutsedge; type: in vivo, Cyperus rotundus
In short: as §1

[1] = Preemergence, Rate 62 g/ha, scale of 0 to 10 where 0 is no effect and 10 is complete control
[2] = Preemergence, Rate 250 g/ha, scale of 0 to 10 where 0 is no effect and 10 is complete control
[3] = Preemergence, Rate 500 g/ha, scale of 0 to 10 where 0 is no effect and 10 is complete control
[4] = Rate 62 g/ha, Postemergence, scale 0 to 10 (0 no effect, 10 complete control)
[5] = Rate 125 g/ha, Postemergence, scale of 0 to 10 where 0 is no effect and 10 is complete control
[6] = Rate 250 g/ha, Postemergence, scale of 0 to 10 where 0 is no effect and 10 is complete control
[7] = Rate 500 g/ha, Postemergence, scale 0 to 10, 0 no effect, 10 complete control

C=CCn1c(=O)on(C(=O)N(CC)C2CCCCC2)c1=O [Compound 307]
9: Giant foxtail plant response rating (giant foxtail; [2]) | Giant foxtail plant response rating (giant foxtail; [3])
6: Giant foxtail plant response rating (giant foxtail; [1])
8: Giant foxtail plant response rating (0 to 10 scale) (giant foxtail; Preemergence, Rate 125 g/ha) | Wild oats plant response rating (wild oat; [3])
0: Bedstraw plant response rating (bedstraw; [1]) | Bedstraw plant response rating (0 to 10 scale) (bedstraw; Preemergence, Rate 125 g/ha) | Bedstraw plant response rating (bedstraw; [2]) | Bedstraw plant response rating (bedstraw; [3]) | Bedstraw plant response rating (bedstraw; [4]) | Bedstraw plant response rating (bedstraw; [5]) | Plant response rating, Bedstraw (bedstraw; [6]) | Bedstraw plant response rating (bedstraw; [7]) | Blackgrass plant response rating (blackgrass; [1]) | Blackgrass plant response rating (0 to 10 scale) (blackgrass; Preemergence, Rate 125 g/ha) | Blackgrass plant response rating (blackgrass; [4]) | Blackgrass plant response rating (blackgrass; [5]) | Plant response rating, Blackgrass (blackgrass; [6]) | Blackgrass plant response rating (blackgrass; [7]) | B. signalgrass plant response rating (surinam grass; [1]) | B. signalgrass plant response rating (0 to 10 scale, 0 is no effect, 10 is complete control) (surinam grass; Preemergence, Rate 125 g/ha) | B. signalgrass plant response rating (surinam grass; [2]) | B. signalgrass plant response rating (surinam grass; [4]) | B. signalgrass plant response rating (surinam grass; [5]) | Plant response rating, B. signalgrass (surinam grass; [6]) | B. signalgrass plant response rating (surinam grass; [7]) | Cocklebur plant response rating (cocklebur; [1]) | Cocklebur plant response rating (0 to 10 scale) (cocklebur; Preemergence, Rate 125 g/ha) | Cocklebur plant response rating (cocklebur; [2]) | Cocklebur plant response rating (cocklebur; [4]) | Cocklebur plant response rating (cocklebur; [5]) | Plant response rating, Cocklebur (cocklebur; [6]) | Cocklebur plant response rating (cocklebur; [7]) | Corn plant response rating (corn; [1]) | Corn plant response rating (0 to 10 scale) (corn; Preemergence, Rate 125 g/ha) | Corn plant response rating (corn; [2]) | Corn plant response rating (corn; [4]) | Corn plant response rating (corn; [5]) | Plant response rating, Corn (corn; [6]) | Corn plant response rating (corn; [7]) | Crabgrass plant response rating (crabgrass; [1]) | Crabgrass plant response rating (0 to 10 scale) (crabgrass; Preemergence, Rate 125 g/ha) | Crabgrass plant response rating (crabgrass; [2]) | Crabgrass plant response rating (crabgrass; [4]) | Crabgrass plant response rating (crabgrass; [5]) | Plant response rating, Crabgrass (crabgrass; [6]) | Giant foxtail plant response rating (giant foxtail; [4]) | Giant foxtail plant response rating (giant foxtail; [5]) | Plant response rating, Giant foxtail (giant foxtail; [6]) | Morningglory plant response rating (morningglory; [1]) | Morningglory plant response rating (0 to 10 scale) (morningglory; Preemergence, Rate 125 g/ha) | Morningglory plant response rating (morningglory; [2]) | Morningglory plant response rating (morningglory; [3]) | Morningglory plant response rating (morningglory; [4]) | Redroot pigweed plant response rating (pigweed; [1]) | Redroot pigweed plant response rating (0 to 10 scale) (pigweed; Preemergence, Rate 125 g/ha) | Redroot pigweed plant response rating (pigweed; [2]) | Redroot pigweed plant response rating (pigweed; [4]) | Redroot pigweed plant response rating (pigweed; [5]) | Plant response rating, Redroot pigweed (pigweed; [6]) | Rape plant response rating (rape; [1]) | Rape plant response rating (0 to 10 scale) (rape; Preemergence, Rate 125 g/ha) | Rape plant response rating (rape; [2]) | Rape plant response rating (rape; [3]) | Rape plant response rating (rape; [4]) | Rape plant response rating (rape; [5]) | Plant response rating, Rape (rape; [6]) | Soybean plant response rating (soybean; [1]) | Soybean plant response rating (0 to 10 scale) (soybean; Preemergence, Rate 125 g/ha) | Soybean plant response rating (soybean; [2]) | Soybean plant response rating (soybean; [3]) | Soybean plant response rating (soybean; [4]) | Velvetleaf plant response rating (velvetleaf; [1]) | Velvetleaf plant response rating (0 to 10 scale) (velvetleaf; Preemergence, Rate 125 g/ha) | Velvetleaf plant response rating (velvetleaf; [2]) | Velvetleaf plant response rating (velvetleaf; [4]) | Velvetleaf plant response rating (velvetleaf; [5]) | Plant response rating, Velvetleaf (velvetleaf; [6]) | Wheat plant response rating (wheat; [1]) | Wheat plant response rating (0 to 10 scale) (wheat; Preemergence, Rate 125 g/ha) | Wheat plant response rating (wheat; [2]) | Wheat plant response rating (wheat; [3]) | Wheat plant response rating (wheat; [4]) | Wheat plant response rating (wheat; [5]) | Plant response rating, Wheat (wheat; [6]) | Wild oats plant response rating (wild oat; [1]) | Wild oats plant response rating (0 to 10 scale) (wild oat; Preemergence, Rate 125 g/ha) | Wild oats plant response rating (wild oat; [2]) | Wild oats plant response rating (wild oat; [4]) | Wild oats plant response rating (wild oat; [5]) | Plant response rating, Wild oats (wild oat; [6]) | Nutsedge plant response rating (purple nutsedge; [1]) | Nutsedge plant response rating (0 to 10 scale) (purple nutsedge; Preemergence, Rate 125 g/ha) | Nutsedge plant response rating (purple nutsedge; [2]) | Nutsedge plant response rating (purple nutsedge; [3]) | Nutsedge plant response rating (purple nutsedge; [4]) | Nutsedge plant response rating (purple nutsedge; [5]) | Plant response rating, Nutsedge (purple nutsedge; [6])
4: Blackgrass plant response rating (blackgrass; [3]) | B. signalgrass plant response rating (surinam grass; [3]) | Redroot pigweed plant response rating (pigweed; [3])
2: Blackgrass plant response rating (blackgrass; [2]) | Corn plant response rating (corn; [3]) | Crabgrass plant response rating (crabgrass; [3]) | Morningglory plant response rating (morningglory; [5]) | Plant response rating, Morningglory (morningglory; [6]) | Soybean plant response rating (soybean; [5]) | Plant response rating, Soybean (soybean; [6]) | Velvetleaf plant response rating (velvetleaf; [3])
